Data published in article PMC5522529, “Mechanisms of Paradoxical Activation of AMPK by the Kinase Inhibitors SU6656 and Sorafenib” (Cell Chemical Biology, 2017).

Experiments:
[1] = target: T1, human AMPK-α2 Y436F mutant (Homo sapiens, UniProt P54646, Y436F); assay: AMPK activity of FLAG-tagged Y436F AMPK-α2 expressed in HEK293 cells; type: cell-based; details: SU6656 100 μM, phenformin 10 mM, A23187 10 μM, 1 hr
T1 construct: expressed in transfected cells; host or cells: HEK293 (transient transfection)
Description: Top: AMPK activity (mean ± SEM, n = 4); bottom: western blots showing phosphorylation of Thr172 on AMPK, and of ERK1/2, in cells treated with DMSO (control), SU6656 (100 μM), or PP2 (100 nM) (n = 2). (B) As (A), but in SYF cells. (C) HeLa cells were transfected with DNAs encoding GFP alone, or GFP fused to WT, Y261F/Y365F (FF), or Y36F/Y261F/Y365F (FFF) mutants of LKB1; cells were treated with increasing concentrations of SU6656 for 1 hr and AMPK activity determined (mean ± SEM, n = 4). See also Figure S1. (D) HEK293 cells were transfected with DNAs encoding FLAG-tagged AMPK-α2 with or without a Y436F mutation. Cells were incubated with DMSO (control), 100 μM SU6656, 10 mM phenformin, or 10 μM A23187 for 1 hr; AMPK complexes were immunoprecipitated using anti-FLAG antibody and assayed. The top panels show kinase activities (mean ± SD, n = 3); the bottom panels show blots from the same experiment (n = 2). In all panels, asterisks indicate significant differences from DMSO controls; in (D), there were no significant differences between the WT and Y463F mutant. **p < 0.01, ****p < 0.0001.

α2-KD = target: T2, α2-KD (Homo sapiens, UniProt P54646); assay: Inactivation of α2-KD by PP2Cα; type: biochemical; details: 5 mM ATP, AMP 2 mM, SU6656 up to 10 μM
T2 construct: amplifying residues 1-310 with 5' BamH1 and 3' Xho1 sites; made in house; host or cells: bacteria
Description: Figure 5 SU6656 Promotes AMPK Activation by Binding to the Catalytic Site: Studies in Cell-Free Assays (A) Effect of increasing concentrations of SU6656 ± 1 mM AMP in the presence of 2 mM ATP on the activity of purified rat liver AMPK. (B) Effect of ATP concentration on kinase activity of α2-KD in the presence of increasing concentrations of SU6656. Results (mean, n = 2) were fitted to the equation Y= (Vmax × X)/(Km × (1 + I/Ki) + X), where Y is the activity, X is the ATP concentration, I is the concentration of SU6656, and Ki is the inhibitory constant for SU6656. The curves were generated using this equation with the best-fit values of Vmax, Km, and Ki (shared between all four curves) quoted in the main text. (C) Inhibition of phosphorylated α2-KD (WT or AT mutant) by SU6656. […] The reduced inhibition at 10 μM SU6656 may be due to the inhibitor coming out of solution, so those data were not used for curve fitting. (D and E) Effect of increasing concentrations of SU6656 on activity (D) and Thr172 phosphorylation (E) induced by LKB1 with unphosphorylated α2-KD (WT/AT mutant). Results in (D) are mean ± SEM (n = 3); and were fitted to same equation as Figure 4C. […] The complexes (which have low basal phosphorylation due to lack of LKB1 in HeLa cells) were incubated with or without a limiting amount of LKB1, AMP (200 μM) or SU6656 (3 μM) for 10 min and AMPK activity determined. […]

T1 sequence (P54646 whole entry Y436F): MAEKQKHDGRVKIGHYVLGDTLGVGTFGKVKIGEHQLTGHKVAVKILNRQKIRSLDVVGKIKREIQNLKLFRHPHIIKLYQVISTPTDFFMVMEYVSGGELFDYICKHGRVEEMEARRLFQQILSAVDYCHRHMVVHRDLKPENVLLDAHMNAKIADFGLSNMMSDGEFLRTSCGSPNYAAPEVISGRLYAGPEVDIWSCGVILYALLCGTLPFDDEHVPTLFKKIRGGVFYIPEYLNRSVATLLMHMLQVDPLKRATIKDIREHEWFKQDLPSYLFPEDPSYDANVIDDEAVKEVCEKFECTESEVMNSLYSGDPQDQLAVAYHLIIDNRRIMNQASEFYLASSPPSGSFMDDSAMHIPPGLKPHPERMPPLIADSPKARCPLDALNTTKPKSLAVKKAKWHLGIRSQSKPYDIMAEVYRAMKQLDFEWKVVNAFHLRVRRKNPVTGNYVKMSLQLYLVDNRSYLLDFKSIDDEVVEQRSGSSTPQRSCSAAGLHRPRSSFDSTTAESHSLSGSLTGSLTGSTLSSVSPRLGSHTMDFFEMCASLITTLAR
T1 sequence (P54619 whole entry partner): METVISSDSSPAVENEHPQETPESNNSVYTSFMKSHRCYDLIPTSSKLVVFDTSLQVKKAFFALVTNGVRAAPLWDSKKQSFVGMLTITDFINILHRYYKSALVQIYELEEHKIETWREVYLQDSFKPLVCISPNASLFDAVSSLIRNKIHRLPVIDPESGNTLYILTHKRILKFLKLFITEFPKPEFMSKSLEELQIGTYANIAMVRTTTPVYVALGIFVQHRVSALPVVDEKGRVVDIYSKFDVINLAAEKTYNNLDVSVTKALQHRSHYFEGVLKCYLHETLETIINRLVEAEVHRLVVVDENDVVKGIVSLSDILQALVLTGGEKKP
T2 sequence (P54646 1-310): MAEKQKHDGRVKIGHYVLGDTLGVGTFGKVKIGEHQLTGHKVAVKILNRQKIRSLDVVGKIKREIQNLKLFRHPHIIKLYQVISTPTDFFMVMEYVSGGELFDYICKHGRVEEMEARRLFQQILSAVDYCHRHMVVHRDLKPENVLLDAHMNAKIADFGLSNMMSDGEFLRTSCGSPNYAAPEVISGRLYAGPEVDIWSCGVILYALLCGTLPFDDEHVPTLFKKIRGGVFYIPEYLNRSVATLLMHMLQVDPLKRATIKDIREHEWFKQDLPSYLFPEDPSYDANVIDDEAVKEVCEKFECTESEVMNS

CN(C)S(=O)(=O)c1ccc2c(c1)/C(=C/c1cc3c([nH]1)CCCC3)C(=O)N2 [SU6656]
AMPK activation response with Y436F mutation [1]: unaffected by the Y436F mutation
protection against inactivation by PP2Cα (α2-KD): did not protect against inactivation
